Experimental data taken from a melting point compilation (Tetko et al.; mined from patent text by program, amines drawn as free bases though some values may be those of a salt).

Row | melting point | SMILES
1 | > 301 °C | Cc1[nH]n(C)c2nc(-c3ccncc3)nc(=O)c1-2
2 | 121 °C | O=C(c1ccccc1)c1cccc(-c2cccc(Cn3cncn3)c2)c1
3 | 198 to 199 °C | CCOc1ccc(S(=O)(=O)N2CCN(C)CC2)cc1-c1nc2c(COC)nn(C)c2c(=O)[nH]1
4 | 82 to 84 °C | CCOC(=O)C=Cc1cc(Br)cc(C(O)c2ccc(F)cc2)c1 (configuration not stated)
5 | 283 to 288 °C | CCn1cc(C(=O)O)c(=O)c2cc(F)c(-n3ccnc3)c(F)c21
6 | 113 to 116 °C | NS(=O)(=O)c1ccccc1OC(F)(F)C(F)Cl (configuration not stated)
7 | 124 to 128 °C | COCNC(=O)NC1CCCc2ccccc21 (configuration not stated)
8 | 255 to 259 °C | CCOC(=O)C1=C(C)NC(C)=C(C(=O)OCC)C1c1csc2ccc([N+](=O)[O-])cc12
9 | 37 to 39 °C | CCCCCCCCOc1cc(OC)ccc1C=O
10 | 109 to 112 °C | Clc1ccc(-n2nc3c(c2Br)CCC3)cc1
11 | 150 °C | Cn1cncc1C(N)(c1ccc(CN)cc1)c1ccc2c(c1)c(-c1cccc(Cl)c1)cc(=O)n2C (configuration not stated)
12 | 139 to 140 °C | CCOC(=O)CC(c1ccccc1)N(N)C(=O)c1cc(C(=O)OCc2ccccc2)ccc1OCCOC (racemic)
13 | 145 to 150 °C | COC(=O)c1nc(-c2ccco2)cc(N)c1Cl
14 | > 300 °C | O=c1c(Cl)cn(-c2cc3[nH]c(=O)c(=O)[nH]c3cc2[N+](=O)[O-])cc1Cl
15 | 78 to 82 °C | COc1cc2c(c(Cl)c1Cl)CCC2
16 | 201 to 205 °C | CC(=O)C1(OC=O)CCC2C3CCC4=CC(=O)C=CC4(C)C3CCC21C (configuration not stated)
17 | 190 to 192 °C | CS(=O)c1ccc(F)c(-c2nc3ncccc3[nH]2)c1 (configuration not stated)
18 | 242 to 245 °C | CN1c2ccc(-c3ccccc3)cc2S(=O)(=O)c2cc(-c3ccccc3)ccc21
19 | 213 to 214 °C | COc1cc(Nc2c(C#N)cnc3cc(C)sc23)c(Cl)cc1Cl
20 | 265 to 267 °C | CC(=O)NC1C(NC(=N)N)C=C(C(=O)O)OC1C(OC(=O)NCCCO)C(O)CO (configuration not stated)
21 | 115 to 118 °C | Clc1ccc2nc(N3CCCCC3)nc(N3CCCCC3)c2c1
22 | 133 to 135 °C | Cn1c(N2CC3CC2CN3C(=O)c2ccccc2)nc(-c2ccncn2)cc1=O (configuration not stated)
23 | 103 to 105 °C | COC(=O)c1ccc(-c2nc(-c3cc(C)oc3C)cs2)cc1
24 | 240 °C | O=C(Nc1ccc(Br)cn1)Nc1cccc2c1C1CC3(CCN1C2=O)SCCS3 (configuration not stated)

Row | melting point | SMILES
25 | 201 °C | CNC(=S)NS(=O)(=O)c1cc2c(cc1OC)OCCC2CNC(=O)c1cc(Cl)ccc1OC (single isomer, unassigned; (+))
26 | 137 to 138 °C | Cc1ccc(-c2cccc3ccccc23)n1CC[C@H]1C[C@H](O)CC(=O)O1 (relative stereo)
27 | 219 to 221 °C | N#CC=Cc1ccc(C=Cc2ccc(C=CC#N)cc2)cc1
28 | 130 to 133 °C | Cc1ccc(N2CCN(c3ccc(C(C)(C)O)nc3-c3ccc(C(C)C)cc3)CC2)cc1
29 | 187 to 188 °C | CN(C)c1ccc(-c2cccc3c2C2(COc4cc5c(cc42)OCCO5)C(=O)N3Cc2ccccn2)cn1 (configuration not stated)
30 | 160 to 163 °C | O=C(c1ccccc1)c1cc(Oc2cc(Cl)cc(Cl)c2)c2c(=O)c3ccccc3sc2c1
31 | 149 to 151 °C | COCC1CN(C(=O)c2cc(OC)c(OC)c(OC)c2)CCN1C(=O)c1csc(-c2ccc(OC)c(OC)c2)n1 (configuration not stated)
32 | 80 to 100 °C | CCCCCN(CCC12CC3CC(CC(C3)C1)C2)C(=O)NCCc1ccccn1
33 | 94 to 95 °C | CCOC(=O)C1(CCl)Nc2cc(C)cc(C)c2C(=O)N1c1ccccc1Cl (configuration not stated)
34 | 172 °C | N#CCCn1c(=O)n(C2CCN(CCNC(=O)c3ccc(F)cc3)CC2)c2ccccc21
35 | 155 to 156 °C | O=C(O)CCN1C(=O)CSC1=S
36 | 173 to 174 °C | O=C(Nc1nc(C(C(=O)O)=C(Cl)C(=O)OCc2ccccc2)cs1)OCc1ccccc1
37 | 188 to 191 °C | Nc1ccc(-c2nc3ccccc3o2)cc1I
38 | 111 to 112 °C | CCCCC1(CC)COP(=O)(Cc2ccc([N+](=O)[O-])cc2)OC1 (configuration not stated)
39 | 125 °C | Nn1c(C(F)(F)F)cc(-c2ccc(C(F)(F)F)cc2)cc1=O
40 | 136 to 138 °C | CCOC(=O)Cn1c(-c2cc3c(cc2[N+](=O)[O-])OCO3)nc2ccccc21
41 | 84 to 85 °C | OC(Cc1ccccc1)c1ccccc1Br (configuration not stated)
42 | 227 to 229 °C | O=C(O)C1=CCC(c2ccccc2)(c2ccccc2)CC1
43 | 159 to 163 °C | COC1CC2(C)C(CCC3C4CC=C(C(C)=O)C4(C)CC(=O)C32)CC1O (configuration not stated)
44 | 89 °C | CCOc1cc(-c2cc(C(F)(F)F)nc(Cl)n2)ccc1C(F)(F)F
45 | 236 to 239 °C | CCOc1ccc2nc3cc(OC)c(=O)c(Cl)c-3sc2c1
46 | 179 to 180 °C | O=C(N1CCC(N2CCOCC2)CC1)C12CC(c3ccccc31)c1ccccc12
47 | 292 to 318 °C | O=c1ccc2c(F)cc(F)cc2[nH]1
48 | 173 to 174 °C | COc1cc(C=C(N)C(C)=O)ccc1OCC1CO1 (configuration not stated)

Row | melting point | SMILES
49 | 236 to 238 °C | O=C(O)Cn1sc2ccccc2c1=O
50 | 112 to 114 °C | Cc1nc(CCn2cnc3c2c(=O)n(C)c(=O)n3C)no1
51 | 77 to 79 °C | O=NSC1(CCO)C2CC3CC(C2)CC1C3 (configuration not stated)
52 | 73 to 74 °C | CCOC(=O)c1c(Cl)nc(CC)n1Cc1ccc2oc(-c3ccccc3NC(=O)OC(C)(C)C)c(Br)c2c1
53 | 228 to 229 °C | CCN(CC)CC(=O)Nc1cccc2c1C(=O)c1c(NC(=O)CN(CC)CC)cccc1C2=O
54 | 54 to 56 °C | CCCCCCCCCCCCCCOC(=O)c1ccc(OC)c(N)c1
55 | 342 to 344 °C | CN(C)c1ccc2c(c1)C(=O)CC(c1cccc(O)c1)=N2
56 | 232 to 233 °C | Cc1cc(CCC(=O)O)nc(-c2nc(=O)c3ccc(Cl)cc3s2)c1
57 | 112 °C | CSC(=CC(=O)C(F)(F)F)NCc1ccc(Cl)nc1
58 | 141 to 142 °C | COC(=O)C(C(=O)Nc1ccc(F)cc1)=C1SCS1
59 | 45 to 46 °C | CC(C)(C)NC(=O)c1ncccc1CCc1cccc(Cl)c1
60 | 231 to 232 °C | CC(C)C(NC(=O)OCc1ccccc1)C(=O)NC(Cc1ccccc1)C(O)C(O)C(Cc1ccccc1)NC(=O)C(NC(=O)OCc1ccccc1)C(C)C (configuration not stated)
61 | 137 °C | OCc1ccc(Cn2c(NC3CCN(CC(O)COc4ccc(F)cc4)CC3)nc3ccccc32)o1 (configuration not stated)
62 | 77 °C | O=C(c1ccccc1)c1ccc(N2CCCCC2)c([N+](=O)[O-])c1
63 | 202 to 204 °C | O=C1Nc2ccc(Cl)cc2C2(c3ccccc3)OCCCN12 (configuration not stated)
64 | 80 °C | COC(=O)C(C)=Cc1cc(N)ccc1Cl
65 | 126 °C | O=Cc1cnc2n1CCc1ccccc1C2=C1CCN(C2CCN(C(=O)c3cc(C(F)(F)F)cc(C(F)(F)F)c3)C(Cc3ccccc3)C2)CC1 (configuration not stated)
66 | 67 °C | COC(=O)c1ccc(OC2=C(Oc3ccc(C(=O)OC)cc3)C(F)(F)C(F)(F)C2(F)F)cc1
67 | 103 to 105 °C | N=C(OCc1ccc(Cl)cc1)N1Cc2ccccc2-c2ccccc2C1
68 | 93 to 95 °C | COc1ccc2c(-c3ccc(OC)c(C)c3)noc2c1
69 | 239 to 241 °C | N#Cc1ccc(NC(=O)c2ccccc2SSc2ccccc2C(=O)Nc2ccc(C#N)cc2)cc1
70 | 74 to 76 °C | CC(Br)C(=O)N1C(=O)c2ccccc2OC12CCCCC2 (configuration not stated)
71 | 176 °C | O=C(O)C1c2ccccc2COc2ccc(F)cc21 (configuration not stated)
72 | 137 to 140 °C | O=C(Oc1cc(F)ccc1F)c1cc2cc(CCl)ccc2oc1=O

Row | melting point | SMILES
73 | 149 to 150 °C | NCCSc1c(S(=O)(=O)c2ccccc2)c2ccccc2n1Cc1ccccc1
74 | 187 to 188 °C | N#Cc1c(N)n[nH]c1-c1ccc(Oc2ccccc2)cc1
75 | 315 °C | Cc1cc2c(cc1C)-n1nnnc1C=C(c1ccc(-n3c(C)nc4cnccc43)cc1)N2
76 | 77 to 79 °C | CCNC(=O)c1ccccc1-c1ccccc1
77 | 48 to 50 °C | CN1C(=O)C(=O)N(CCCCCBr)C1=S
78 | 163 to 164 °C | O=C(O)c1cc(OCc2ccccc2)nn1-c1ccccc1
79 | 198 to 200 °C | CCCCc1nc(C(F)(F)F)c(CO)n1Cc1ccc(-c2ccccc2C(=O)O)cc1
80 | 180 to 189 °C | Cc1ccc(S(=O)(=O)N2CCCC2c2nnnn2[C@@](C)(Cc2ccc(N(C(=O)OC(C)(C)C)C(=O)C3CCNCC3)cc2)C(=O)O)cc1 (some centres not stated)
81 | 185 °C | NC(=O)c1ccc(N2CCN(CCCC3OCCc4ccccc43)CC2)cc1 (racemic)
82 | 143 to 144 °C | COc1cc(NC(=O)C(C)(C)C)ccc1C(=O)N(C)C
83 | 55 to 56 °C | C[Si](C)(C)OC1(C#N)CCC(C(=O)NCc2cccc3ccccc23)c2ccccc21 (configuration not stated)
84 | 184 to 185 °C | CC(C)NS(=O)(=O)c1sccc1-c1cccc2cc(-c3ncc(CCl)s3)[nH]c12
85 | 118 to 119 °C | COc1cc(CC(C)=O)ccc1OCCCN1CCC(c2noc3cc(F)ccc23)CC1
86 | 128 to 129 °C | COc1ccc(C[C@]2(C)C(=O)O[C@@H](c3ccccc3)N2C(=O)c2ccccc2)cc1
87 | 270 °C | COc1ccc(Cc2nc(S)[nH]c2Cc2ccc(OC)cc2)cc1
88 | 259 °C | CNC(=O)c1cc2c(nc(C)n2C)c2c1CCC(c1ccccc1)N2 (configuration not stated)
89 | 150 °C | CN(C)CCN1CCC(=Cc2cc(C(C)(C)C)c(O)c(C(C)(C)C)c2)C1=O
90 | 68 to 69 °C | CCn1c(=O)c2c(ncn2CCCCC(C)=O)n(CC)c1=O
91 | 124 to 125 °C | CCOC(=O)c1cn(Cc2ccc(OCc3ccccc3)cc2)nc1OCc1ccc(OCc2ccccc2)cc1
92 | 178 to 180 °C | Cc1cc(-n2ccc(OCc3ccc(OC(F)F)cc3)cc2=O)sc1C(=O)NCc1ccccc1
93 | 112 to 114 °C | CCCn1c(=O)n(-c2ccc3c(c2)OCO3)c2ncccc21

Row | SMILES | melting point
94 | COC1c2c(ccc3cnn(CC(C)N)c23)OCC1O (configuration not stated) | 105 to 108 °C
95 | CC(c1c[nH]cn1)c1cccc2c1OC(C)(C)OC2 (configuration not stated) | 118 °C
96 | CC1(C)CCC(C)(C)c2cc(-c3cn(-c4ccc(C(=O)O)cc4)c(S)n3)ccc21 | 170 to 172 °C
97 | Cc1ccc2c(c1)C(=O)C[C@H]1CCN(C)C[C@H]21 (relative stereo) | > 250 °C
